Results taken from patent US20250332167A1, “PHARMACEUTICAL USE OF CDK 4/6 INHIBITOR” (priority 2021, published 2025).

Key:
Format in all cases: cell-based
NCI-H441 = assay: Proliferation inhibition, non-small cell lung cancer cell line NCI-H441; details: Homo sapiens, NCI-H441, 72 h
Description: (§1) Sixteen non-small cell lung cancer cell lines, including NCI-H1792, NCI-H1703, NCI-H441, SNU-761, NCI-H1975, NCI-H358, NCI-H1838, NCI-H1915, A549, SK-MES-1, NCI-H292, PC-9, NCI-H460, NCI-H23, NCI-H1581, and HLF, were used for the proliferation inhibition assay of the present invention compound. […] The cell detection equipment used was In Cell Analyzer 2200 (GE Healthcare).
(§2) With 60 μM as the initial concentration, ten points were obtained by serial five-fold dilution.
(§3) Each kind of cell in logarithmic growth phase was inoculated with 4000 cells/100 μl/well into a black transparent bottom 96-well plate and cultured overnight at 37° C. The next day, the plate was taken out, and 20 μL of the prepared sample dilutions was added to each well. The plate was then subjected to treatment at 37° C. for 72 hours. After the treatment period of 72 hours, the plate was taken out and 50 μL of neutral formaldehyde fixative (formaldehyde: PBS=1:9, 50 μl/well) was added to each well. The plate was then fixed at room temperature for 10-30 minutes. Subsequently, the wells were washed twice with 1× PBS (100 μl/well) and treated with 0.2% Triton™-X100 for 5-10 minutes to permeabilize the cells. […] The inhibitory rates of each compound at different concentration points were calculated by using the following formula, and IC50 values were obtained through curve fitting using GraphPad Prism 6.0 software.

SK-MES-1 = assay: Proliferation inhibition, non-small cell lung cancer cell line SK-MES-1; details: Homo sapiens, SK-MES-1, 72 h
Description: as §1, §2, §3

NCI-H358 = assay: Proliferation inhibition, non-small cell lung cancer cell line NCI-H358; details: Homo sapiens, NCI-H358, 72 h
Description: as §1, §2, §3

NCI-H1975 = assay: Proliferation inhibition, non-small cell lung cancer cell line NCI-H1975; details: Homo sapiens, NCI-H1975, 72 h
Description: as §1, §2, §3

NCI-H460 = assay: Proliferation inhibition, non-small cell lung cancer cell line NCI-H460; details: Homo sapiens, NCI-H460, 72 h
Description: as §1, §2, §3

NCI-H23 = assay: Proliferation inhibition, non-small cell lung cancer cell line NCI-H23; details: Homo sapiens, NCI-H23, 72 h
Description: as §1, §2, §3

A549 = assay: Proliferation inhibition, non-small cell lung cancer cell line A549; details: Homo sapiens, A549, 72 h
Description: as §1, §2, §3

SNU-761 = assay: Proliferation inhibition, non-small cell lung cancer cell line SNU-761; details: Homo sapiens; SNU-761, 72 h
Description: as §1, §2, §3

U118MG cells = assay: Proliferation inhibition of human glioblastoma cells U118MG (DAPI cell count, 72 h); details: U-118-MG, 72 h treatment
Description: Human glioblastoma cell U118MG was purchased from NANJING COBIOER BIOSCIENCES CO., LTD. […] The cell detection equipment used was the In Cell Analyzer 2200 (GE Healthcare).
as §2
Medium for U118 MG is the MEM (low glucose) medium supplemented with 10% FBS, 1% penicillin/streptomycin, 1% sodium pyruvate, and 1% MEM NEAA. U118 MG cells were seeded at a density of 4000 cells/100 μL/well in a 96-well black clear-bottom plate and incubated at 37° C. overnight. The plate was then taken, and 20 μL of the prepared diluted samples was added to the wells. The cells were treated at 37° C. for 72 hours. After 72 hours, the plate was taken, and a neutral formaldehyde fixation solution (formaldehyde:PBS=1:9) was added at 50 μL/well. The cells were fixed at room temperature for 10-30 minutes. The wells were washed twice with 1× PBS (100 μL/well), and then permeabilized with 0.2% Triton™-X100 for 5-10 minutes (100 μL/well). […] The plate was scanned by using an In Cell Analyzer, and the number of cells in each well was analyzed. The inhibition rate of each compound at various concentration points was calculated by using the formula provided. The IC50 values were determined by curve fitting using GraphPad Prism 6.0 software.

NCI-H1703 = assay: Proliferation inhibition, non-small cell lung cancer cell line NCI-H1703; details: Homo sapiens, NCI-H1703, 72 h
Description: as §1, §2, §3

NCI-H1792 = assay: Proliferation inhibition, non-small cell lung cancer cell line NCI-H1792; details: Homo sapiens, NCI-H1792, 72 h
Description: as §1, §2, §3

NCI-H1838 = assay: Proliferation inhibition, non-small cell lung cancer cell line NCI-H1838; details: Homo sapiens, NCI-H1838, 72 h
Description: as §1, §2, §3

Work on `CC1=Nc2c(F)cc(-c3nc(Nc4ccc(C5CCN(C)CC5)cn4)ncc3F)cc2C12CCCC2.O=C(O)/C=C/C(=O)O` [Compound A, Fumarate salt of 5-fluoro-4-(7′-fluoro-2′-methylspiro[cyclopentane-1,3′-indol]-5′-yl)-N-(5-(1-methylpiperidin-4-yl)pyridin-2-yl)pyrimidine-2-amine] yielded an IC50 (NCI-H441) of 7 nM, an IC50 (SK-MES-1) of 67 nM and an IC50 (NCI-H358) of 17 nM. It also gave an IC50 (NCI-H1975) of 10 nM, an IC50 (NCI-H460) of 235 nM and an IC50 (NCI-H23) of 243 nM. For the same compound, the IC50 (A549) was 66 nM, the IC50 (SNU-761) was 8 nM and the IC50 (U118MG cells) was 23.2 ± 5.2 nM. It also gave an IC50 (NCI-H1703) of 3 nM, an IC50 (NCI-H1792) of 3 nM and an IC50 (NCI-H1838) of 47.9 nM.
